Reference: patent US20190231791A1, “Combination Therapy” (Eli Lilly and Company, priority 2016, published 2019)
Like-named read-outs stand apart in the source and are kept apart here.

Experiments:
BACE1 = target: T1, BACE1 (Homo sapiens, UniProt P56817); assay: SH-SY5YAPP695Wt whole cell assay (Abeta ELISA); assay type: cell-based; settings: 24 hours incubation
T1 construct: endogenous in cells; host or cells: SH-SY5Y (ATCC CRL2266) stably expressing human APP695Wt
Experimental: (§1) To assess selectivity of BACE1 over BACE2, the test compound is evaluated in FRET and immunoassay detection base enzymatic assays using specific substrates for BACE1 and BACE2 as described below. For in vitro enzymatic and cellular assays, the test compound is prepared in DMSO to make up a 10 mM stock solution. The stock solution is serially diluted in DMSO to obtain a ten-point dilution curve with final compound concentrations ranging from 10 μM to 0.05 nM in a 96-well round-bottom plate before conducting the in vitro enzymatic and whole cell assays.
The routine whole cell assay for the measurement of inhibition of BACE1 activity utilizes the human neuroblastoma cell line SH-SYSY (ATCC Accession No. CRL2266) stably expressing a human APP695Wt cDNA. Cells are routinely used up to passage number 6 and then discarded.
SH-SY5YAPP695Wt cells are plated in 96 well tissue culture plates at 5.0×10^4 cells/well in 200 μL culture media (50% MEM/EBSS and Ham's F12, 1× each sodium pyruvate, non-essential amino acids and NaHCO3 containing 10% FBS). […]
At the end of the incubation, conditioned media are analyzed for evidence of beta-secretase activity by analysis of Abeta peptides 1-40 and 1-42 by specific sandwich ELISAs. […]

human BACE2 (1-460):Fc = target: T2, human BACE2 (1-460):Fc (Homo sapiens, UniProt Q9Y5Z0); assay: BACE2 MBP-C125Swe assay; assay type: biochemical
T2 construct: 10 μL of 200 picomolar human BACE2 (1-460):Fc in the same reaction buffer; made in house; host or cells: HEK293 (transient transfection, purified from conditioned media by Protein A)
T2 sequence (Q9Y5Z0 21-460): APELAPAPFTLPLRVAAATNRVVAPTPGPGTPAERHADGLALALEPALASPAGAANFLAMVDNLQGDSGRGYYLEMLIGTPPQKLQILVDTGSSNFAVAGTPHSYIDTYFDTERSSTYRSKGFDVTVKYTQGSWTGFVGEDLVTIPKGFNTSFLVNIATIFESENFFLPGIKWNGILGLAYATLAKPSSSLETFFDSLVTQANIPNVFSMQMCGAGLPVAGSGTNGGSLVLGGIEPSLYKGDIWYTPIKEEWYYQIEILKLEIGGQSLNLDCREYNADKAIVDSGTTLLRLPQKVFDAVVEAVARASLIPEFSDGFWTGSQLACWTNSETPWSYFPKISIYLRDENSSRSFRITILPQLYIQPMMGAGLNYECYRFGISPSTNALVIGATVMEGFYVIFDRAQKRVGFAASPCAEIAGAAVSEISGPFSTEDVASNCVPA
Experimental: as §1
Human BACE1 (accession number: AF190725) and human BACE2 (accession number: AF 204944) are cloned from total brain cDNA by RT-PCR. The nucleotide sequences corresponding to amino acid sequences #1 to 460 are inserted into the cDNA encoding human IgG1 (Fc) polypeptide (Vassar et al., Science, 286, 735-742 (1999)). This fusion protein of BACE1(1-460) or BACE2(1-460) and human Fc, named huBACE1:Fc and huBACE2:Fc respectively, are constructed in the pJB02 vector. […]
Conditioned media of HEK293 cells transiently transfected with huBACE1:Fc or huBACE2:Fc cDNA are collected. […] The purity of final product is assessed by electrophoresis in 4-20% Tris-Glycine SDS-PAGE. […]
10 point serial dilutions of test compounds are prepared in the appropriate range. […] The amount of product is measured by ELISA using MBP-C26swe standard. […]

beta-secretase = target: T3, beta-secretase (Mus musculus, UniProt P56818); assay: In vivo inhibition of beta-secretase, brain Abeta 1-x in PDAPP mice; settings: young female PDAPP mice, three hours after dosing, vs vehicle, p<0.01
T3 construct: from tissue; host or cells: brain (hippocampus, cortex) of young female PDAPP mice, in vivo dosing
Description: Several animal models, including mouse, guinea pig, dog, and monkey, may be used to screen for inhibition of beta-secretase activity in vivo following compound treatment. Animals used in this invention can be wild type, transgenic, or gene knockout animals. For example, the PDAPP mouse model, prepared as described in Games et al., Nature 373, 523-527 (1995), and other non-transgenic or gene knockout animals are useful to analyze in vivo inhibition of Abeta and sAPPbeta production in the presence of inhibitory compounds. Generally, 2 month old PDAPP mice, gene knockout mice or non-transgenic animals are administered compound formulated in vehicles, such as corn oil, beta-cyclodextran, phosphate buffers, PHARMASOLVE®, or other suitable vehicles via oral, subcutaneous, intra-venous, feeding, or other route of administration. 1 to 24 hours following the administration of compound, animals are sacrificed, and brains are removed for analysis of Abeta 1-x. “Abeta 1-x” as used herein refers to the sum of Abeta species that begin with residue 1 and end with a C-terminus greater than residue 28. This detects the majority of Abeta species and is often called “total Abeta”. Total Abeta peptides (Abeta 1-x) levels are measured by a sandwich ELISA, using monoclonal 266 as a capture antibody and biotinylated 3D6 as reporting antibody. (See May, et al., Journal of Neuroscience, 31, 16507-16516 (2011)).
For acute studies, compound or appropriate vehicle is administered and animals are sacrificed at about 3 hours after dosing. Brain tissue, is obtained from selected animals and analyzed for the presence of Abeta 1-x. After chronic dosing brain tissues of older APP transgenic animals may also be analyzed for the amount of beta-amyloid plaques following compound treatment.
For example, a 0.1, 0.3, and 1 mg/kg oral dose of Example 1, to young female PDAPP mice reduced Abeta 1-x peptide levels in brain hippocampus by 32%, 40%, and 55% (all values p<0.01), respectively.

T3 sequence (P56818 46-501): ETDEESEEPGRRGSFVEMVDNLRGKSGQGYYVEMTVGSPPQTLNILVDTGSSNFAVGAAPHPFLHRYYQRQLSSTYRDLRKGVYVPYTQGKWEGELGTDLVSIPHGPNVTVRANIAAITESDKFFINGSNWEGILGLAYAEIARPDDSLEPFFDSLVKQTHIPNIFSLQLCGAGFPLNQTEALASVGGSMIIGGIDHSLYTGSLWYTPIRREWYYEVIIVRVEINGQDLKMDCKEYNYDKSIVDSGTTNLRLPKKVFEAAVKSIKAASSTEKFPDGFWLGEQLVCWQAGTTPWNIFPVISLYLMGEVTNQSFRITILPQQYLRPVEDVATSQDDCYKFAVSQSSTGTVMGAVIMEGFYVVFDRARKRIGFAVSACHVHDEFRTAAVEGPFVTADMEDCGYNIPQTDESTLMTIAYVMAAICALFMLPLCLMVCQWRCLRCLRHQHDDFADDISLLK
T1 sequence (P56817 46-501): as the sequence (P56818 46-501) above, with S6P, I162V, I165L, T180S, A182V, V340I, A393L, H443Q counted along it

CC(F)(F)[C@H]1OC[C@]2(c3cc(NC(=O)c4ccc(C#N)cn4)ccc3F)N=C(N)SC[C@H]12 [Example 1, N-[3-[(4aS,5S,7aS)-2-Amino-5-(1,1-difluoroethyl)-4,4a,5,7-tetrahydrofuro[3,4-d][1,3]thiazin-7a-yl]-4-fluoro-phenyl]-5-cyano-pyridine-2-carboxamide]
IC50 (BACE1; ± 0.048, n=4, read-out: IC50 for SH-SY5YAPP695Wt A-beta (1-40) ELISA): 0.157 nM | IC50 (BACE1; ± 0.050, n=4, read-out: IC50 for SH-SY5YAPP695Wt A-beta (1-42) ELISA): 0.177 nM | selectivity for BACE1 over BACE2 (BACE2 IC50 / BACE1 IC50) (human BACE2 (1-460):Fc): approximately 35 fold | reduction of Abeta 1-x levels in brain cortical tissue (beta-secretase; 0.1 mg/kg oral): 38% | reduction of Abeta 1-x peptide levels in brain hippocampus (beta-secretase; 0.1 mg/kg oral): 32% | reduction of Abeta 1-x levels in brain cortical tissue (beta-secretase; 0.3 mg/kg oral): 50% | reduction of Abeta 1-x peptide levels in brain hippocampus (beta-secretase; 0.3 mg/kg oral): 40% | reduction of Abeta 1-x levels in brain cortical tissue (beta-secretase; 1 mg/kg oral): 67% | reduction of Abeta 1-x peptide levels in brain hippocampus (beta-secretase; 1 mg/kg oral): 55%
